According to patent publication US8013006B2:
Where two headings read alike, the source gives them in different places.

Test system: HCV replicon
Test: microbe, parasite or virus in culture
Assay type: cell-based
[1] = Replicon IC50 values are determined by firefly luciferase signal, bicistronic replicon, 2 days, read-out: Replicon IC5Os

Structure (SMILES)	IC50 (Hepatitis C virus, 48 h, read-out: Replicon IC5Os μM)	IC50 [1]
CC(=O)OCc1c(OC(C)=O)ccc2c([N+](=O)[O-])c(C)n(-c3ccc(C)cc3)c12 [Compound 1]	> 2 µM	
COc1ccc(-n2c(C)c([N+](=O)[O-])c3cc(CN(C)C)c(O)cc32)cc1 [Compound 3]		> 2 µM
CC(C)n1cc(C#N)c2ccc(O)cc21 [Compound 6]		> 2 µM
COc1ccc2c(C#N)cn(-c3ccc(C)c(C)c3)c2c1 [Compound 8]		0.5 to 2 µM
CCCCOc1ccc2c(C#N)cn(CC)c2c1 [Compound 11]		> 2 µM
CCn1cc(C#N)c2ccc(OCc3ccccc3)cc21 [Compound 12]		0.5 to 2 µM
CCOC(=O)c1cn(CC)c2cc(OC)ccc12 [Compound 17]		> 2 µM
CCn1cc(C#N)c2ccc(OC(F)F)cc21 [Compound 18]		> 2 µM
CCn1c(-c2ccoc2)c(C#N)c2ccc(OC)cc21 [Compound 20]		> 2 µM
CCn1c(-c2ccccc2)c(C#N)c2ccc(OC)cc21 [Compound 21]		> 2 µM
CCn1cc(C#N)c2ccc(-n3cccc3)cc21 [Compound 27]		0.5 to 2 µM
CCn1cc(-c2noc(C3CC3)n2)c2ccc(OC)cc21 [Compound 29]		> 2 µM
CCNc1c(C(=O)OC)c2ccc([N+](=O)O)cc2n1CC [Compound 30]		> 2 µM
CCn1cc(C(=O)c2ccccc2)c2cc(OC)ccc21 [Compound 32]		> 2 µM
CCn1cc(C(=O)c2ccccc2)c2ccc(OC)cc21 [Compound 33]		> 2 µM
CCC(=O)c1cn(CC)c2cc(OC)ccc12 [Compound 34]		> 2 µM
CCn1cc(C(=O)C(C)C)c2ccc(OC)cc21 [Compound 37]		> 2 µM
CCn1cc(C(=O)c2cccc(OC)c2)c2ccc(OC)cc21 [Compound 38]		> 2 µM
CCn1cc(C(=O)c2cccc(OC)c2)c2cc(OC)ccc21 [Compound 39]		> 2 µM
COc1ccc(-c2c[nH]c3ccc([N+](=O)O)cc23)cc1 [Compound 40]		> 2 µM
COc1ccc(-n2cc(C(C)=O)c3cc(OC)ccc32)cc1 [Compound 42, 1-[5-methoxy-1-(4-methoxyphenyl)-1-H-indol-3-yl]-ethanone]		> 2 µM
CC(C)n1cc(C#N)c2cc3c(cc21)OCO3 [Compound 43]		> 2 µM
CCOC(=O)c1c(C)n(-c2ccc(OC)cc2)c2cc(OC(F)F)ccc12 [Compound 46]		> 2 µM
COc1ccc(-n2cc(C(=O)c3ccc(F)cc3)c3ccc(OC)cc32)cc1 [Compound 47]		> 2 µM

Structure (SMILES)	IC50 (Hepatitis C virus, 48 h, read-out: Replicon IC5Os μM)	IC50 [1]
N#Cc1cn(C(F)F)c2cc(OC(F)F)ccc12 [Compound 50]		> 2 µM
CC(C)n1cc(C#N)c2cc3c(cc21)OCCO3 [Compound 52]		> 2 µM
CCn1cc(-c2ccno2)c2ccc(C(=O)OC)cc21 [Compound 60]		> 2 µM
CCn1cc(-c2ccn[nH]2)c2ccc(C(=O)OC)cc21 [Compound 61]		> 2 µM
CCOC(=O)c1cn(CC)c2cc3c(cc12)OCO3 [Compound 62]		> 2 µM
CCn1c(-c2ccc(C(C)(C)C)cc2)c(C#N)c2ccc(OC)cc21 [Compound 63]		> 2 µM
CCn1c(C#Cc2ccccc2)c(C#N)c2ccc(OC)cc21 [Compound 64]		> 2 µM
CCn1c(C#Cc2ccc(OC)cc2)c(C#N)c2ccc(OC)cc21 [Compound 65]		0.5 to 2 µM
CCn1c(C#Cc2cccc(OC)c2)c(C#N)c2ccc(OC)cc21 [Compound 66]		> 2 µM
CCn1c(C#Cc2ccc(C)cc2)c(C#N)c2ccc(OC)cc21 [Compound 68]		0.5 to 2 µM
CCOc1ccc(-c2c(C#N)c3ccc(OC)cc3n2CC)cc1 [Compound 70]		> 2 µM
CCn1c(-c2ccc(C(=O)N(C)C)cc2)c(C#N)c2ccc(OC)cc21 [Compound 71]		> 2 µM
CCn1c(-c2ccc(OC)c(F)c2)c(C#N)c2ccc(OC)cc21 [Compound 74]		> 2 µM
COc1ccc(-c2c(C#N)c3ccc(OC)cc3n2C)cc1 [Compound 76]		> 2 µM
CCOc1ccc(-c2c(C#N)c3ccc(OC)cc3n2C)cc1 [Compound 77]		> 2 µM
CCn1cc(-c2nccs2)c2ccc(C(=O)OC)cc21 [Compound 78]		> 2 µM
CCn1c(-c2ccc(C(C)C)cc2)c(C#N)c2ccc(C(N)=O)cc21 [Compound 79]		> 2 µM
CCn1c(-c2ccc(NS(=O)(=O)CC)cc2)c(C#N)c2ccc(OC)cc21 [Compound 83]		< 0.5 µM
COc1ccc2c(C#N)c(-c3ccc(NS(C)(=O)=O)cc3)n(C3CCC3)c2c1 [Compound 87]		< 0.5 µM
COc1ccc(-n2cc(C#N)c3ccc(C(=O)NO)cc32)cc1 [Compound 89]		0.5 to 2 µM
COc1ccc(-n2cc(C#N)c3ccc(NC(=O)OC(C)(C)C)cc32)cc1 [Compound 90]		> 2 µM
COc1ccc(C#Cc2c(C#N)c3ccc(OC)cc3n2C)cc1 [Compound 92]		> 2 µM
COc1ccc2c(C#N)c(C#Cc3ccc(F)cc3)n(C)c2c1 [Compound 93]		> 2 µM
COc1ccc(-n2cc(C#N)c3ccc(NC(=O)NC(C)(C)C)cc32)cc1 [Compound 98]		> 2 µM

Structure (SMILES)	IC50 (Hepatitis C virus, 48 h, read-out: Replicon IC5Os μM)	IC50 [1]
COc1ccc2c(C#N)c(-c3cccc(C)c3)n(C)c2c1 [Compound 100]		> 2 µM
COc1ccc(-n2cc(C#N)c3ccc(F)cc32)cc1 [Compound 102]		> 2 µM
COc1ccc(-n2cc(C#N)c3ccc(C)cc32)cc1 [Compound 103]		> 2 µM
COc1ccc(-n2cc(-c3nc(C(C)(C)C)cs3)c3ccc(C(N)=O)cc32)cc1 [Compound 104]		0.5 to 2 µM
COC(=O)c1ccc2c(-c3nc(-c4ccncc4)cs3)cn(-c3ccc(OC)cc3)c2c1 [Compound 105]		> 2 µM
COc1ccc(-n2cc(-c3nc(-c4ccc(Cl)c(Cl)c4)cs3)c3ccc(C(N)=O)cc32)cc1 [Compound 106]		> 2 µM
CCn1cc(C#N)c2cc(Br)ccc21 [Compound 108]		> 2 µM
CCCn1cc(C#N)c2cc(Br)ccc21 [Compound 109]		> 2 µM
CCOC(=O)c1ccc(-c2c(C#N)c3ccc(OC)cc3n2CC)cc1 [Compound 110]		0.5 to 2 µM
Cc1ccc2c(C#N)cn(-c3ccc4c(c3)OCO4)c2c1 [Compound 112]		0.5 to 2 µM
CCn1c(-c2ccc(C(=O)N3CCCC3)cc2)c(C#N)c2ccc(OC)cc21 [Compound 113]		> 2 µM
CCn1c(-c2ccc(C(=O)N3CCOCC3)cc2)c(C#N)c2ccc(OC)cc21 [Compound 114]		> 2 µM
N#Cc1c[nH]c2cc(Cl)ccc12 [Compound 115]		> 2 µM
COc1ccc(-n2cc(C#N)c3ccccc32)cc1 [Compound 117]		> 2 µM
CCn1cc(C#N)c2ccc(Cl)cc21 [Compound 118]		0.5 to 2 µM
CCn1c(-c2ccc(NC(=O)OCc3ccccc3)cc2)c(C#N)c2ccc(OC)cc21 [Compound 122]		> 2 µM
CCn1cc(C#N)c2ccc(C(F)(F)F)cc21 [Compound 123]		> 2 µM
Cc1ccc2c(C#N)c(C)n(-c3ccc4c(c3)OCO4)c2c1 [Compound 125]		0.5 to 2 µM
CCn1cc(C#N)c2ccc(Br)cc21 [Compound 126]		> 2 µM
COc1ccc(-n2cc(C#N)c3ccc(Br)cc32)cc1 [Compound 127]		> 2 µM
CCn1c(C#Cc2cccc3ccccc23)c(C#N)c2ccc(OC)cc21 [Compound 133]		0.5 to 2 µM
CCn1c(C#Cc2ccccc2Br)c(C#N)c2ccc(OC)cc21 [Compound 136]		0.5 to 2 µM
CCn1c(C#Cc2ccc(OC)cc2C)c(C#N)c2ccc(OC)cc21 [Compound 137]		0.5 to 2 µM
CCn1cc(C#N)c2cc(-c3cccs3)ccc21 [Compound 140]		> 2 µM

Structure (SMILES)	IC50 (Hepatitis C virus, 48 h, read-out: Replicon IC5Os μM)	IC50 [1]
CCn1cc(C#N)c2cc(-c3ccoc3)ccc21 [Compound 142]		> 2 µM
CCn1c(C#Cc2ccc(N3CCCCC3)cc2)c(C#N)c2ccc(OC)cc21 [Compound 143]		> 2 µM
CCn1c(C#Cc2cccc(Cl)c2)c(C#N)c2ccc(OC)cc21 [Compound 146]		0.5 to 2 µM
CCn1c(C#Cc2ccc(N(C)C)cc2)c(C#N)c2ccc(OC)cc21 [Compound 147]		0.5 to 2 µM
CCn1c(C#Cc2ccc(Cl)cc2)c(C#N)c2ccc(OC)cc21 [Compound 148]		0.5 to 2 µM
CCOc1ccc(C#Cc2c(C#N)c3ccc(OC)cc3n2CC)cc1 [Compound 149]		0.5 to 2 µM
CCn1c(C#Cc2ccccc2F)c(C#N)c2ccc(OC)cc21 [Compound 150]		0.5 to 2 µM
CCn1c(C#Cc2cccc(F)c2)c(C#N)c2ccc(OC)cc21 [Compound 151]		0.5 to 2 µM
CCn1c(C#Cc2ccc(NC(=O)C(C)C)cc2)c(C#N)c2ccc(OC)cc21 [Compound 152]		> 2 µM
CCn1c(C#Cc2ccc(OC)c(OC)c2)c(C#N)c2ccc(OC)cc21 [Compound 159]		0.5 to 2 µM
CCn1c(C#Cc2ccc(NC(=O)[C@@H]3CCCN3)cc2)c(C#N)c2ccc(OC)cc21 [Compound 162]		> 2 µM
CCn1c(C#Cc2ccc(NC(=O)c3c[nH]cn3)cc2)c(C#N)c2ccc(OC)cc21 [Compound 163]		0.5 to 2 µM
CCC(=O)Nc1ccc(C#Cc2c(C#N)c3ccc(O)cc3n2CC)cc1 [Compound 164]		0.5 to 2 µM
CCn1c(C#Cc2ccc(NC(=O)CN)cc2)c(C#N)c2ccc(OC)cc21 [Compound 165]		> 2 µM
CCn1c(C#Cc2ccccc2N)c(C#N)c2ccc(OC)cc21 [Compound 169]		0.5 to 2 µM
CCn1c(C#Cc2cccs2)c(C#N)c2ccc(OC)cc21 [Compound 170]		0.5 to 2 µM
CCn1c(C#Cc2ccsc2)c(C#N)c2ccc(OC)cc21 [Compound 171]		0.5 to 2 µM
CCn1c(C#Cc2ccccn2)c(C#N)c2ccc(OC)cc21 [Compound 174]		0.5 to 2 µM
CCn1c(C#Cc2ccc(OC)cc2)c(C#N)c2cc(OC)ccc21 [Compound 177]		0.5 to 2 µM
CCn1c(C#Cc2ccc(C(F)(F)F)cc2)c(C#N)c2cc(OC)ccc21 [Compound 178]		> 2 µM
CCn1cc(C#N)c2cc(C(F)(F)F)ccc21 [Compound 179]		0.5 to 2 µM
CCn1c(-c2ccc(N(C)S(=O)(=O)CC)cc2)c(C#N)c2ccc(OC)cc21 [Compound 181]		0.5 to 2 µM
CCn1c(C#Cc2cccc3ccccc23)c(C#N)c2ccc(O)cc21 [Compound 184]		0.5 to 2 µM
CCn1c(C#Cc2ccc(OC)cc2)c(C#N)c2ccc(O)cc21 [Compound 186]		0.5 to 2 µM
